Data taken from PubChem BioAssay (NCI).
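Each compound was tested at five concentrations against cells in 96-well plates for 48 hours. The concentration for full growth arrest is given as TGI.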

Assays:
Test in all cases: NCI-60 cell line screen, 48 h
[1] = test system: A498 renal
[2] = test system: MDA-MB-231 breast
[3] = test system: NCI-H23 lung
[4] = test system: NCI-H460 lung
[5] = test system: OVCAR-3 ovarian
[6] = test system: PC-3 prostate
[7] = test system: SF-539 CNS
[8] = test system: SK-MEL-28 melanoma
[9] = test system: SK-OV-3 ovarian
[10] = test system: SN12C renal
[11] = test system: SW-620 colon
[12] = test system: UO-31 renal

SMILES | TGI [1] [µM] | TGI [2] [µM] | TGI [3] [µM] | TGI [4] [µM] | TGI [5] [µM] | TGI [6] [µM] | TGI [7] [µM] | TGI [8] [µM] | TGI [9] [µM] | TGI [10] [µM] | TGI [11] [µM] | TGI [12] [µM]
O=C(Nc1nccs1)NS(=O)(=O)n1cnc2ccccc21 | > 100 | > 100 | > 100 | > 100 | > 100 | > 100 | > 100 | > 100 | > 100 | > 100 | > 100 | > 100
COc1ccc(NC(=S)Nc2c(C)n(C)n(-c3ccccc3)c2=O)cc1 | > 100 | > 100 | > 100 | > 100 | > 100 | > 100 | > 100 | > 100 | > 100 | – | > 100 | > 100
COc1ccc(/C=C2/SC(c3c(O)ccc4ccccc34)N(NC(=O)CCCCCCCCC(=O)NN3C(=O)/C(=C\c4ccc(OC)c(OC)c4)SC3c3c(O)ccc4ccccc34)C2=O)cc1OC (stereo not given) | 49.3 | > 91.7 | > 75 | > 100 | > 58.5 | > 100 | 46 | > 100 | > 52.9 | > 100 | > 100 | –
Cn1c(O)c(C=Nc2ccc(Cl)cc2Cl)c(=O)n(C)c1=O | > 100 | > 100 | > 100 | > 100 | > 100 | > 100 | > 100 | – | > 100 | > 100 | > 100 | > 100
Nc1nc(Cl)c(C=O)c(NCC2(CO)CCC2)n1 | 67.7 | 81.5 | > 100 | > 100 | 42.9 | 34.6 | > 100 | > 100 | 69.5 | > 100 | > 100 | 58.6
COc1ccc(C(=O)N(Cc2cccnc2)C(=S)N(Cc2cccnc2)C(=O)c2ccc(OC)cc2)cc1 | > 100 | > 100 | > 100 | > 100 | > 100 | > 100 | > 100 | > 100 | > 100 | > 100 | > 100 | –
COc1cc(C(=O)N(C(=S)OC23CC4CC(CC(C4)C2)C3)c2ccccc2)cc(OC)c1OC | 92.5 | > 100 | > 100 | > 100 | > 100 | > 100 | > 100 | > 100 | > 100 | > 100 | > 100 | 79
C(#C[C@@]12CCC[C@@H]1N(Cc1ccccc1)CO2)c1ccc2c(c1)OCO2 | > 100 | > 100 | > 100 | > 100 | > 100 | > 100 | > 100 | > 100 | > 100 | > 100 | > 100 | > 100
NS(=O)(=O)c1ccc(N2C(=O)C(=O)N(c3ccccc3)C2=S)cc1 | > 100 | > 100 | > 100 | > 100 | – | > 100 | > 100 | > 100 | > 100 | > 100 | > 100 | > 100
COc1ccc2c(c1)OC1c3ccccc3OCC21 (stereo not given) | > 100 | > 100 | > 100 | > 100 | > 100 | > 100 | > 100 | > 100 | > 100 | > 100 | > 100 | > 100
ClCCc1ccccc1CC1=NCCc2ccccc21 | > 100 | 96.2 | 74.5 | 62.7 | > 100 | > 100 | > 100 | > 100 | > 100 | > 100 | > 100 | 38.3
CNC(=O)OCC1=C(COC(=O)NC)C(C)N(c2ccccc2)C1 (stereo not given) | 7.51 | > 100 | > 100 | > 100 | 92.7 | > 100 | 67.3 | > 100 | > 100 | > 100 | > 100 | > 100
Clc1nc(Nc2nc3ccccc3[nH]2)nc(Cl)c1-c1ccccc1 | 60.6 | 29.1 | 58.4 | 28.7 | – | 60.1 | 34.6 | 27 | 50.5 | 31.1 | 35.6 | 42.4
COC(=O)[C@]1(Cc2ccc3ccccc3c2)CCCCCCN1C(=O)c1ccccc1 | > 51.5 | > 53.5 | > 45.9 | > 50.2 | > 43.5 | > 45.7 | > 54.1 | > 52.1 | > 89.8 | > 51.5 | > 60.3 | > 39.9
COc1ccc2c(c1)C(=O)[C@@](Nc1ccc(C=O)cc1)(OC)[C@@](OC)(c1ccc([N+](=O)[O-])cc1)O2 | > 10 | > 10 | > 10 | > 10 | > 10 | > 10 | > 10 | > 10 | > 10 | > 10 | > 10 | > 10
Brc1ccc(C2CC3(c4ccccc4)ON=C(c4ccccc4)N3c3ccccc3S2)cc1 (stereo not given) | > 100 | > 100 | > 100 | > 100 | > 100 | > 100 | > 100 | > 100 | > 100 | > 100 | > 100 | > 100
Cc1c(C#N)c(N)n(C2OC(CO)C(O)C(O)C2O)c(=S)c1C#N (stereo not given) | > 100 | > 100 | > 100 | > 100 | > 100 | > 100 | > 100 | > 100 | > 100 | > 100 | > 100 | > 100
C=C(C)C1CC2=C(O1)C(=O)c1cccc(O)c1C2=O (stereo not given) | 10.2 | 3.64 | 0.935 | 3.75 | 0.924 | 3.67 | 1.89 | 3.33 | 2.86 | 2.44 | 2.96 | 2.84
